Laboratory results reported in US12201632B2, “Levoketoconazole for treatment of congenital adrenal hyperplasia and primary aldosteronism” (Strongbridge Dublin Limited, priority 2018, dated 2025).

Legend:
[1] = test system: ACTH independent hyperplasia cultures; experiment: Cortisol production in primary ACTH independent hyperplasia cultures; assay type: cell-based, human; conditions: 3 days
Protocol: To obtain primary cultures, adrenal specimens (adrenocortical adenomas, adrenal hyperplasias and adrenocortical carcinomas) were collected after adrenalectomy at the department of Surgery, Erasmus University Medical Center, Rotterdam, the Netherlands, between April 2016 and May 2018. The study was conducted under guidelines that have been approved by the Medical Ethics Committee of the Erasmus Medical Center and informed consent was obtained from all patients. Immediately after surgery, specimens were minced into small pieces of 2-3 mm^3, washed in culture medium and centrifuged for 5 minutes at 600 g. The tissue was stored overnight in culture medium at 4° C., where after the tissue was centrifuged again and the supernatant was removed. Fragments were dissociated using 10-25 ml collagenase type 1 (2 mg/ml: Sigma-Aldrich), followed by incubation at 37° C. for up to two hours. Ficoll (GE healthcare) density gradient separation was used once or twice as required in order to separate contaminating red blood cells from the tumor cells. Cell viability and cell amount were counted by trypan blue exclusion. Dissociated cells were plated at a density of 10^5 cells per well. […]
Cortisol concentrations were measured in the supernatant using a chemiluminescence immunoassay system (Immulite 2000XPi; Siemens DPC Inc., Los Angeles, Calif., USA). In addition, we carried out multi-steroid analysis by liquid chromatography/mass spectrometry (LC/MS-MS) to accurately quantify androstenedione, corticosterone, cortisol, 11-deoxycortisol, DHEA, DHEAS, progesterone, 17-hydroxyprogesterone, and testosterone. […] Steroids were quantified with respect to a calibration series, with internal standards. Steroids were quantified on a Xevo TQS LC-MS/MS (Waters Chromatography).
Statistical analysis was performed using Graphpad Prism 6.0 (Graphpad Software, San Diego, CA). […] Effects of both compounds on the steroid profile were measured as absolute change compared to control and compared using the Student's t-test. […]

HAC15 cells = experiment: Steroid profile by LC/MS-MS in HAC15 cells; assay type: cell-based, Human; conditions: 0.5 μM
Protocol: Human adrenocortical carcinoma HAC15 and mouse corticotroph AtT20 cells were used, purchased as a kind gift by Dr. W. Rainey, and obtained from Dr. J. Tooze (European Organization for Molecular Biology), respectively. Both cell lines were cultured in 75 cm^2 flasks at 37° C. in a humidified incubator (Greiner Bio-One, Alphen a/d Rijn, the Netherlands) at 5% CO2. Dulbecco's Modified Eagle Medium F12 containing 5% fetal calf serum was used for HAC15, whereas AtT20 cells were cultured in Dulbecco's minimal essential medium (DMEM) supplemented with 10% fetal calf serum. Both mediums were supplemented with L-glutamine (2 mmol/L) and penicillin (10^5 U/L). Short tandem repeat (str) profiling using a Powerplex Kit (Promega, Leiden, the Netherlands) of HAC15 and AtT20 gave results consistent with the ATCC database, confirming the identity of both cell lines. Medium and supplements were obtained from Invitrogen, Breda, the Netherlands. Once a week, cells were harvested with trypsin (0.05%)-EDTA (0.53 mM) and resuspended in culture medium. Levoketoconazole (COR-003) and racemic ketoconazole (both from Cortendo AB) were dissolved in absolute ethanol (EtOH), according to manufacturer's instructions, and stored at −20° C. at a stock concentration of […]. At the start of each experiment, both drugs were freshly prepared and diluted in EtOH in the correct concentrations. Synacten (synthetic ACTH, Novartis Pharma A.G.) stock concentration was stored at 4° C. and dissolved in culture medium at the day of use. The final concentrations of ACTH were chosen based on a dose-response curve in HAC15 cells and previously reported studies in the literature. For HAC15, 200,000 and 100,000 cells were plated in 0.5 ml medium in 24 well plates for experiments of 1 and 3 days, respectively. For AtT20, cell amounts were 100,000 and 30,000. One day after seeding the HAC15 cells, the medium was refreshed and cells were treated 1 or 3 days in quadruplicate with levoketoconazole or racemic ketoconazole (0.05-5 μM), with or without 10 nM ACTH. To study effects of both compounds on pituitary AtT20 cells, concentrations of 0.1 to 10 μM of both drugs were used. Controls were vehicle treated. […] Media were collected after 1 or 3 days of incubation and stored at −20° C. until analysis. All cell culture experiments were carried out at least twice.
Cortisol concentrations were measured in the supernatant using a chemiluminescence immunoassay system (Immulite 2000XPi; Siemens DPC Inc., Los Angeles, Calif., USA). In addition, we carried out multi-steroid analysis by liquid chromatography/mass spectrometry (LC/MS-MS) to accurately quantify androstenedione, corticosterone, cortisol, 11-deoxycortisol, DHEA, DHEAS, progesterone, 17-hydroxyprogesterone, and testosterone. Concentrations that were tested on the LC/MS-MS were closest to 50% inhibition or maximal inhibition of cortisol as determined by the immunoassay. Steroids were quantified with respect to a calibration series, with internal standards. Steroids were quantified on a Xevo TQS LC-MS/MS (Waters Chromatography).
Statistical analysis was performed using Graphpad Prism 6.0 (Graphpad Software, San Diego, CA). Non-linear regression curve fitting program was used to calculate the half maximal inhibitory concentrations (IC50) on cortisol production. Effects of both compounds on the steroid profile were measured as absolute change compared to control and compared using the Student's t-test. When assessing differences between effects of both compounds, the percentage change was evaluated and compared in order to correct for differences in the vehicle treated control cells. Values of P<0.05 were considered statistically significant and data are presented as mean SEM.

IC50 inhibition of cortisol production ([1]; ACTH independent hyperplasia no. 1, basal condition): Ambiguous
IC50 ([1]; Homo sapiens, 72 h, ACTH independent hyperplasia no. 2, ACTH (85 μM) stimulated condition, read-out: IC50 inhibition of cortisol production): 1390 nM
Compound: CC(=O)N1CCN(c2ccc(OCC3COC(Cn4ccnc4)(c4ccc(Cl)cc4Cl)O3)cc2)CC1 (racemic) [racemic ketoconazole, Ketoconazole]
total sum of decrease of steroids (HAC15 cells; HAC15, ACTH): −1,591 nmol/L
11-DOC absolute change vs ACTH stimulation with vehicle (HAC15 cells; HAC15, ACTH, 3 days): -664.5 nmol/L
11-DOC percentage change vs ACTH stimulation with vehicle (HAC15 cells; HAC15, ACTH, 3 days): (−22%****)
17-OHP absolute change vs ACTH stimulation with vehicle (HAC15 cells; HAC15, ACTH, 3 days): -14.13 nmol/L
17-OHP percentage change vs ACTH stimulation with vehicle (HAC15 cells; HAC15, ACTH, 3 days): (−29%***)
Androstenedione absolute change vs ACTH stimulation with vehicle (HAC15 cells; HAC15, ACTH, 3 days): -661.4 nmol/L
Androstenedione percentage change vs ACTH stimulation with vehicle (HAC15 cells; HAC15, ACTH, 3 days): (−40%*)
Corticosterone absolute change vs ACTH stimulation with vehicle (HAC15 cells; HAC15, ACTH, 3 days): -0.0125 nmol/L
Corticosterone percentage change vs ACTH stimulation with vehicle (HAC15 cells; HAC15, ACTH, 3 days): (−1.5%****)
Cortisol absolute change vs ACTH stimulation with vehicle (HAC15 cells; HAC15, ACTH, 3 days): -15.15 nmol/L
Cortisol percentage change vs ACTH stimulation with vehicle (HAC15 cells; HAC15, ACTH, 3 days): (−45%****)
DHEA absolute change vs ACTH stimulation with vehicle (HAC15 cells; HAC15, ACTH, 3 days): -17.04 nmol/L
DHEA percentage change vs ACTH stimulation with vehicle (HAC15 cells; HAC15, ACTH, 3 days): (−41%***)
DHEAS absolute change vs ACTH stimulation with vehicle (HAC15 cells; HAC15, ACTH, 3 days): -197.4 nmol/L
DHEAS percentage change vs ACTH stimulation with vehicle (HAC15 cells; HAC15, ACTH, 3 days): (−35%)
Prog absolute change vs ACTH stimulation with vehicle (HAC15 cells; HAC15, ACTH, 3 days): -0.9625 nmol/L
Prog percentage change vs ACTH stimulation with vehicle (HAC15 cells; HAC15, ACTH, 3 days): (−30%****)
Testosterone absolute change vs ACTH stimulation with vehicle (HAC15 cells; HAC15, ACTH, 3 days): -20.29 nmol/L
Testosterone percentage change vs ACTH stimulation with vehicle (HAC15 cells; HAC15, ACTH, 3 days): (−50%****)
11-DOC absolute change vs control (HAC15 cells; HAC15, Basal, 3 days): -521.2 nmol/L
11-DOC percentage change vs control (HAC15 cells; HAC15, Basal, 3 days): (−23%****)
17-OHP absolute change vs control (HAC15 cells; HAC15, Basal, 3 days): -16.50 nmol/L
17-OHP percentage change vs control (HAC15 cells; HAC15, Basal, 3 days): (−37%****)
Androstenedione absolute change vs control (HAC15 cells; HAC15, Basal, 3 days): -809.0 nmol/L
Androstenedione percentage change vs control (HAC15 cells; HAC15, Basal, 3 days): (−47%**)
Corticosterone absolute change vs control (HAC15 cells; HAC15, Basal, 3 days): +0.1750 nmol/l
Corticosterone percentage change vs control (HAC15 cells; HAC15, Basal, 3 days): (+19%****)
Cortisol absolute change vs control (HAC15 cells; HAC15, Basal, 3 days): -10.93 nmol/L
Cortisol percentage change vs control (HAC15 cells; HAC15, Basal, 3 days): (−47%****)
DHEA absolute change vs control (HAC15 cells; HAC15, Basal, 3 days): -39.50 nmol/L
DHEA percentage change vs control (HAC15 cells; HAC15, Basal, 3 days): (−56%**)
DHEAS absolute change vs control (HAC15 cells; HAC15, Basal, 3 days): -496.4 nmol/L
DHEAS percentage change vs control (HAC15 cells; HAC15, Basal, 3 days): (−44%*)
Prog absolute change vs control (HAC15 cells; HAC15, Basal, 3 days): -0.3125 nmol/L
Prog percentage change vs control (HAC15 cells; HAC15, Basal, 3 days): (−19%****)
Testosterone absolute change vs control (HAC15 cells; HAC15, Basal, 3 days): -25.78 nmol/L
Testosterone percentage change vs control (HAC15 cells; HAC15, Basal, 3 days): (−58%***)
total sum of decrease of steroids (HAC15 cells; HAC15, basal): −1,919 nmol/L
